Molecules are shown by their SMILES.

Holding throughout (assay): Competitive isoTOP-ABPP in situ (fragment-treated cells)
Common to all, as to format: cell-based

The target of assay [1] is cysteines in MDA-MB-231 and Ramos cells (Homo sapiens, UniProt Q13526). As to conditions: 200 μM, insitu.
Assay [2] addresses T1, cysteines in MDA-MB-231 and Ramos cells (Homo sapiens, UniProt Q96CM8).
T1 sequence (Q96CM8 42-615): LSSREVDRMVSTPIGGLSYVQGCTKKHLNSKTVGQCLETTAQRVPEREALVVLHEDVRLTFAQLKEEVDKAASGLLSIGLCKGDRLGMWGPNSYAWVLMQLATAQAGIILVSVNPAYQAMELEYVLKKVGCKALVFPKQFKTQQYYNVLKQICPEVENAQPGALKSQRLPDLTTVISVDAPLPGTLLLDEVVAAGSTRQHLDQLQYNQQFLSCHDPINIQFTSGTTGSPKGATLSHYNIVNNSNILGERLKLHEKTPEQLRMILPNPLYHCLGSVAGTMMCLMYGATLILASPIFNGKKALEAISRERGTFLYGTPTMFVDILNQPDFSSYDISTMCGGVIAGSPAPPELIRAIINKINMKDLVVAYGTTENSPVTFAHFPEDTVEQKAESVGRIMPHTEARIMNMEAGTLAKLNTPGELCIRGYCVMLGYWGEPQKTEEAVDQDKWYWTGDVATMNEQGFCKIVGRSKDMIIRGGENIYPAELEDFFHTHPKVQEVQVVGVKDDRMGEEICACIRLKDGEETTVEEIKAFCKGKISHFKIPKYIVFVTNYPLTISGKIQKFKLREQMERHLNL
As to conditions: 200 μM, insitu.

Assay [3] addresses T2, cysteines in MDA-MB-231 and Ramos cells (Homo sapiens, UniProt Q13418).
T2 sequence (Q13418 1-452): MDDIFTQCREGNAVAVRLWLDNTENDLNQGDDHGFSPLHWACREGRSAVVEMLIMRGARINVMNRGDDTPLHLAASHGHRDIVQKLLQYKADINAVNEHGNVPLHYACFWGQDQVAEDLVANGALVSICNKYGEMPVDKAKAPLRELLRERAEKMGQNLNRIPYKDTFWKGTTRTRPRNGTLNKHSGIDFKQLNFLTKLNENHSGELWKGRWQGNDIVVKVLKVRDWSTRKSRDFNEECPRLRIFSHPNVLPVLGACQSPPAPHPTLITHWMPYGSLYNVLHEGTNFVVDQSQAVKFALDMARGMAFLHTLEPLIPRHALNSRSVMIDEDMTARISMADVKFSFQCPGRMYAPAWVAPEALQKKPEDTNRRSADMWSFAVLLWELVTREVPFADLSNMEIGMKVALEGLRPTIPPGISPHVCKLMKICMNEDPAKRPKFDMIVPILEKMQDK
As to conditions: 200 μM, insitu, 231.

Assay [4] addresses T3, cysteines in MDA-MB-231 and Ramos cells (Homo sapiens, UniProt P13667).
T3 sequence (P13667 21-645): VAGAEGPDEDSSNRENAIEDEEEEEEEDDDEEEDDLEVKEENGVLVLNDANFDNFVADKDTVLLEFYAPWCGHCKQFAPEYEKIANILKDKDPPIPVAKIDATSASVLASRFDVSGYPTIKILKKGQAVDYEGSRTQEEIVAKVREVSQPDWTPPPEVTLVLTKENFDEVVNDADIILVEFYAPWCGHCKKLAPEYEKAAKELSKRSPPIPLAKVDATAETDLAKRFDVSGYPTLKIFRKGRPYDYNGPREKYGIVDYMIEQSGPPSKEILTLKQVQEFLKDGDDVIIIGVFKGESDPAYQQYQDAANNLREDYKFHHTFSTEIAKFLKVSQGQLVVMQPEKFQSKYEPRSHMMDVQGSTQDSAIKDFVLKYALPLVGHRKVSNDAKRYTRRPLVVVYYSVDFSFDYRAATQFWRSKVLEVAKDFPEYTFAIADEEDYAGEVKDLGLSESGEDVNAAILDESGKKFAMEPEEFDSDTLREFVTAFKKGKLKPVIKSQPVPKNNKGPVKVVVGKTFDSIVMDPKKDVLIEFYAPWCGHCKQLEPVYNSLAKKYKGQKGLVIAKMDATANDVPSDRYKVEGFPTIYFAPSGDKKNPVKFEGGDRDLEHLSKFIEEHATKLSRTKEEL
As to conditions: 200 μM, insitu.

For assay [5], the target named is cysteines in MDA-MB-231 and Ramos cells (Homo sapiens, UniProt P61978). As to conditions: 200 μM, insitu.
The target of assay [6] is T4, cysteines in MDA-MB-231 and Ramos cells (Homo sapiens, UniProt O95229).
T4 sequence (O95229 1-277): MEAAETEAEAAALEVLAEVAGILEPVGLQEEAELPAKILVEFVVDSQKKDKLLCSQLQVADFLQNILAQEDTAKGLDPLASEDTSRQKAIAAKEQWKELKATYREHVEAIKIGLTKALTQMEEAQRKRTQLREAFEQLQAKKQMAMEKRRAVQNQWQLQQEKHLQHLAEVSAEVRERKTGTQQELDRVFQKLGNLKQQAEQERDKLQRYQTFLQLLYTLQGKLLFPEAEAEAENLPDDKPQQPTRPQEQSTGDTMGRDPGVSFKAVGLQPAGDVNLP
As to conditions: 200 μM, insitu.

Assay [7] has as its target T5, cysteines in MDA-MB-231 and Ramos cells (Homo sapiens, UniProt Q9UMS0).
T5 sequence (Q9UMS0 10-254): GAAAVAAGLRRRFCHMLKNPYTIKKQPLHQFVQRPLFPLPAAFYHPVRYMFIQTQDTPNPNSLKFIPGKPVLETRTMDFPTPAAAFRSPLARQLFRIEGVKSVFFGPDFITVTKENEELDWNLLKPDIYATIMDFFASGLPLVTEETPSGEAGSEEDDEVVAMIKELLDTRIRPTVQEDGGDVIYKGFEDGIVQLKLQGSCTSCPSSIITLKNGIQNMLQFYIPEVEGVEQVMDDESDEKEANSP
As to conditions: 200 μM, insitu.

Chain of cysteines in MDA-MB-231 and Ramos cells (Homo sapiens, UniProt Q13526) (Q13526 whole entry): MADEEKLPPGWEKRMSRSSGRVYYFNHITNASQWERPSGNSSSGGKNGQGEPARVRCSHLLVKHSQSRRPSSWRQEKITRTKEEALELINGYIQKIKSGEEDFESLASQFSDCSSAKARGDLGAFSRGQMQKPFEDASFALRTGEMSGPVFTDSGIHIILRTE

On to `O=C(CCl)NC12CC3CC(CC(C3)C1)C2` [compound 21], for which, in assay [1] (231), the “isoTOP-ABPP ratio Q13526_C113” value is reported as 0.7. Further, the “isoTOP-ABPP ratio Q96CM8_C64” value in assay [2] (231) was 2.0. Further, the “isoTOP-ABPP ratio Q13418_C346” value in assay [3] stood at 0.5. Further, the “isoTOP-ABPP ratio P13667_C206” value in assay [4] (231) is listed as 0.8. Further, the “isoTOP-ABPP ratio P61978_C132” value in assay [5] (231) is 1.4. Besides, in assay [6] (231), the “isoTOP-ABPP ratio O95229_C54” value is 0.8.

Turning to `COc1ccccc1OCCNC(=O)CCl` [compound 28], the “isoTOP-ABPP ratio Q13526_C113” value in assay [1] (231) is on record as 0.7. The “isoTOP-ABPP ratio P13667_C206” value in assay [4] (231) worked out at 1.3. In assay [5] (231), the “isoTOP-ABPP ratio P61978_C132” value was found to be 1.0. In addition, the “isoTOP-ABPP ratio O95229_C54” value in assay [6] (231) turned out to be 0.7.

In the case of `O=C(CCl)N1CCN(CC(=O)N2CCOCC2)CC1` [compound 29], the “isoTOP-ABPP ratio Q13526_C113” value in assay [1] (ramos) came out at 1.0. The “isoTOP-ABPP ratio Q96CM8_C64” value in assay [2] (ramos) amounted to 2.3. For the same molecule, in assay [7] (ramos), the “isoTOP-ABPP ratio Q9UMS0_C213” value was found to be 2.0. Further, in assay [4] (ramos), the “isoTOP-ABPP ratio P13667_C206” value amounted to 1.4 and the “isoTOP-ABPP ratio P13667_C555” value is 1.5. For the same molecule, the “isoTOP-ABPP ratio P61978_C132” value in assay [5] (ramos) came out at 1.2. Moreover, the “isoTOP-ABPP ratio O95229_C54” value in assay [6] (ramos) is 1.2.

Regarding `C=CC(=O)N(Cc1cccnc1)c1cc(C(F)(F)F)cc(C(F)(F)F)c1` [compound 31], the “isoTOP-ABPP ratio Q13526_C113” value in assay [1] (231) came out at 0.6; in assay [1] (ramos) it was 1.1. In addition, the “isoTOP-ABPP ratio Q96CM8_C64” value in assay [2] (231) is given as 0.8. Further, in assay [3], the “isoTOP-ABPP ratio Q13418_C346” value is 0.6. Further, in assay [7] (231), the “isoTOP-ABPP ratio Q9UMS0_C213” value is on record as 1.5. Also, the “isoTOP-ABPP ratio P13667_C206” value was 0.8 in assay [4] (231) and 1.1 in assay [4] (ramos). Also, the “isoTOP-ABPP ratio P13667_C555” value stood at 0.8 in assay [4] (231) and 1.1 in assay [4] (ramos). The “isoTOP-ABPP ratio P61978_C132” value came to 0.9 in assay [5] (231) and 1.1 in assay [5] (ramos).

For the molecule `C=CC(=O)Nc1cc(F)c(N2CCN(C(=O)OC(C)(C)C)CC2)c(F)c1` [compound 38], the “isoTOP-ABPP ratio Q13526_C113” value in assay [1] (231) came to 1.0. Also, the “isoTOP-ABPP ratio Q96CM8_C64” value in assay [2] (231) is 1.1. In addition, the “isoTOP-ABPP ratio Q13418_C346” value in assay [3] turned out to be 1.0. Besides, in assay [7] (231), the “isoTOP-ABPP ratio Q9UMS0_C213” value was determined as 3.5. Besides, in assay [4] (231), the “isoTOP-ABPP ratio P13667_C206” value is listed as 0.9 and the “isoTOP-ABPP ratio P13667_C555” value is recorded as 0.8. Further, the “isoTOP-ABPP ratio P61978_C132” value in assay [5] (231) worked out at 1.0.

In the case of `CC1CCc2ccccc2N1C(=O)CCl` (stereo not drawn) [compound 45], the “isoTOP-ABPP ratio Q13526_C113” value in assay [1] (231) was 10.0. In addition, the “isoTOP-ABPP ratio Q96CM8_C64” value in assay [2] (231) is on record as 20.0. Besides, the “isoTOP-ABPP ratio Q9UMS0_C213” value in assay [7] (231) amounted to 7.1. In assay [4] (231), the “isoTOP-ABPP ratio P13667_C206” value stood at 1.9 and the “isoTOP-ABPP ratio P13667_C555” value is listed as 2.6. Further, the “isoTOP-ABPP ratio P61978_C132” value in assay [5] (231) is on record as 9.3.

Turning to `O=C(CCl)Nc1cccc2ncccc12` [compound 51], in assay [1] (231), the “isoTOP-ABPP ratio Q13526_C113” value turned out to be 1.4. The “isoTOP-ABPP ratio Q13418_C346” value in assay [3] was found to be 0.8. The “isoTOP-ABPP ratio Q9UMS0_C213” value in assay [7] (231) was found to be 1.8. Besides, in assay [4] (231), the “isoTOP-ABPP ratio P13667_C206” value is on record as 5.3 and the “isoTOP-ABPP ratio P13667_C555” value worked out at 6.0. Besides, in assay [5] (231), the “isoTOP-ABPP ratio P61978_C132” value is reported as 1.2. Besides, in assay [6] (231), the “isoTOP-ABPP ratio O95229_C54” value came out at 1.0.

The record behind these values is US10670605B2, “Cysteine reactive probes and uses thereof” (The Scripps Research Institute, priority 2015, dated 2020).
